Source: ChEMBL document CHEMBL3580644, “Synthesis of piperlongumine analogues and discovery of nuclear factor erythroid 2-related factor 2 (Nrf2) activators as potential neuroprotective agents” (J Med Chem, 2015)
Calls of active or inactive are those of the source. The rule behind the calls is not given here.

Tests used:
[1] = Cytotoxicity against rat PC12 cells assessed as reduction in cell viability at 100 uM incubated for 24 hrs by MTT assay; format: cell-based; settings: pc-12, 24 h
[2] = Cytotoxicity against human L02 cells assessed as reduction in cell viability at 100 uM incubated for 24 hrs by MTT assay; format: cell-based; settings: l02, 24 h
[3] = tested on: PC-12; assay: Cytoprotection activity against H2O2-induced cytotoxicity in rat PC12 cells assessed as cell viability at 20 uM pre-incubated for 24 hrs before H2O2 exposure for 12 hrs by MTT assay; format: functional, cell-based
[4] = Cytotoxicity against rat PC12 cells assessed as reduction in cell viability at 20 uM incubated for 24 hrs by MTT assay; format: cell-based; settings: pc-12, 24 h
[5] = tested on: PC-12; assay: Cytoprotection activity against 6-OHDA-induced cytotoxicity in rat PC12 cells assessed as cell viability at 20 uM pre-incubated for 24 hrs before 6-OHDA exposure for 12 hrs by MTT assay; format: functional, cell-based
[6] = Cytotoxicity against rat PC12 cells assessed as reduction in cell viability at 20 uM to 100 uM incubated for 24 hrs by MTT assay; format: cell-based; settings: pc-12, 24 h
[7] = Cytotoxicity against human L02 cells assessed as reduction in cell viability at 20 uM to 100 uM incubated for 24 hrs by MTT assay; format: cell-based; settings: l02, 24 h
[8] = Antioxidant activity assessed as DPPH radical scavenging activity at 20 uM incubated for 30 mins by spectrophotometry; format: physicochemical; settings: 0.5 h
[9] = Antioxidant activity assessed as ABTS radical scavenging activity at 20 uM incubated for 30 mins by spectrophotometry; format: physicochemical; settings: 0.5 h

SMILES	Activity [1]	Activity [2]	Activity [3]	Activity [4]	Activity [5]	Activity [6]	Activity [7]	Activity [8]	Activity [9]
O=C(/C=C/c1ccccc1)N1CCCCCC1=O	Toxic	Toxic	Active	Non-toxic	Active				
O=C(/C=C/c1ccccc1)N1CCCCC1=O	Toxic	Toxic	Active	Non-toxic	Active				
O=C(/C=C/c1ccc(Br)cc1)N1CCCCC1=O	Toxic	Toxic	Active	Non-toxic	Active				
O=C(/C=C/c1ccc([N+](=O)[O-])cc1)N1CCCCCC1=O	Toxic	Toxic	Active	Non-toxic	Active				
COc1cc(/C=C/C(=O)N2CCC=CC2=O)cc(OC)c1OC [PIPLARTINE]				Toxic		Toxic	Toxic		
COc1cc(CCC(=O)N2CCCCC2=O)cc(OC)c1OC [TETRAHYDROPIPLARTINE]			inactive	Non-toxic	inactive	Non-toxic	Non-toxic		
O=C(/C=C/c1ccc(O)cc1)N1CCCC1=O			Active	Non-toxic	Active	Non-toxic	Non-toxic	Active	Active
COc1ccc(/C=C/C(=O)N2CCCC2=O)cc1OC			Active	Non-toxic	Active	Non-toxic	Non-toxic		
O=C(/C=C/c1ccccc1)N1CCCC1=O	Toxic	Toxic	Active	Non-toxic	Active				
O=C(/C=C/c1ccc(C(F)(F)F)cc1)N1CCCCCC1=O	Toxic	Toxic	Active	Non-toxic	Active				
O=C(/C=C/c1ccc(C(F)(F)F)cc1)N1CCCCC1=O	Toxic	Toxic	Active	Non-toxic	Active				
O=C(/C=C/c1ccc(C(F)(F)F)cc1)N1CCCC1=O	Toxic	Toxic	Active	Non-toxic	Active				
O=C(/C=C/c1ccc([N+](=O)[O-])cc1)N1CCCCC1=O	Toxic	Toxic	Active	Non-toxic	Active				
COc1ccc(/C=C/C(=O)N2CCCCC2=O)cc1			Active	Non-toxic	Active	Non-toxic	Non-toxic		
COc1cc(/C=C/C(=O)N2CCCC2=O)cc(OC)c1OC			Active	Non-toxic	Active	Non-toxic	Non-toxic		
COc1cc(/C=C/C(=O)N2CCCCCC2=O)cc(OC)c1OC			Active	Non-toxic	Active	Non-toxic	Non-toxic		
O=C(/C=C/c1ccc(Br)cc1)N1CCCC1=O	Toxic	Toxic	Active	Non-toxic	Active				
